≈ marks a conversion by molar mass, not a printed value. Where “and” joins values, the source holds several entries; their conditions need not be identical. Identical values can stand only once. Like-named read-outs stand apart in the source and are kept apart here.
Key:
ecLeuRS [1] = target: T1, ecLeuRS (Escherichia coli, UniProt P07813); conditions: cited from earlier work
ecLeuRS [2] = target: T1, ecLeuRS; assay: SPR single-cycle kinetics, BAP-ecLeuRS in the presence of AMP; assay type: binding; conditions: for Kd/IC50: ratio of SPR Kd (AMP) and IC50 after 1 h preincubation; for kon: read-out: SPR kon
E. coli ATCC25922 [3] = assay: MIC, visible growth in 96-well plates; assay type: cell-based, Escherichia coli
E. coli ΔtolC and ΔacrAB = assay type: cell-based, Escherichia coli
ecLeuRS [4] = target: T1, ecLeuRS; assay: LeuRS aminoacylation-activity assay; assay type: biochemical; conditions: IC50, 1 h preincubation, 1 h preincubation with enzyme and ectRNA^Leu
ecLeuRS D342E [5] = target: T2, ecLeuRS D342E (Escherichia coli, UniProt P07813, D342E); assay: biochemical; assay type: binding
T2 sequence (P07813 whole entry D342E): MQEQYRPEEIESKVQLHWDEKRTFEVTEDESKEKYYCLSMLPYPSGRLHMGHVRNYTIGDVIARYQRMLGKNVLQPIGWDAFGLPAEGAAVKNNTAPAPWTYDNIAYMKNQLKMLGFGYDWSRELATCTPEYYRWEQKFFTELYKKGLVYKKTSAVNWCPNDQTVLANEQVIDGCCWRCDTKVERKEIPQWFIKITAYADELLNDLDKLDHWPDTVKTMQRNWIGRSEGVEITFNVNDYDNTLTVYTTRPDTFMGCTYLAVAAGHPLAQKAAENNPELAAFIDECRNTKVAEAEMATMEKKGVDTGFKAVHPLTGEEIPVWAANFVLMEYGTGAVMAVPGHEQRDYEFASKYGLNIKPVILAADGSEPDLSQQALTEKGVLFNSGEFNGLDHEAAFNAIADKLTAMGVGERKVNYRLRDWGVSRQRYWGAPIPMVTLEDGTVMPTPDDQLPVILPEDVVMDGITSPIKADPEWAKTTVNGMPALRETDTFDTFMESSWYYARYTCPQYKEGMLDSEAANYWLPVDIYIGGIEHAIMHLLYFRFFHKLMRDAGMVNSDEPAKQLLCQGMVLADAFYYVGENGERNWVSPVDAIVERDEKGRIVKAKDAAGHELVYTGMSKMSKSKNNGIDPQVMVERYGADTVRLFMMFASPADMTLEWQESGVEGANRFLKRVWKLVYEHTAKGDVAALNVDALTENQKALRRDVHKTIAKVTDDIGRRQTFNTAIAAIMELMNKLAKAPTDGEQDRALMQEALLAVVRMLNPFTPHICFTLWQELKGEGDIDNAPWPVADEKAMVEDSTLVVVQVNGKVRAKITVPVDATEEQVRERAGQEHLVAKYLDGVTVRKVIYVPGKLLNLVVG

ecLeuRS D342E [6] = target: T2, ecLeuRS D342E; assay: biochemical; assay type: biochemical
E. coli ATCC25922 [7] = assay: Time-kill assay; assay type: cell-based, Escherichia coli; conditions: combination of ganfeborole and Nva, M9 medium
[8] = tested on: E. coli mutant strains (ecLeuRS D342E, G333D, D345N, V335D); assay: microbe, parasite or virus in culture; assay type: cell-based, Escherichia coli
human cytoplasmic LeuRS = conditions: read-out: reported IC50; cited from earlier work
mtLeuRS [9] = target: T3, mtLeuRS (Mycobacterium tuberculosis, UniProt P9WFV1); conditions: mtLeuRS in the presence of AMP; cited from earlier work
T3 sequence (P9WFV1 whole entry): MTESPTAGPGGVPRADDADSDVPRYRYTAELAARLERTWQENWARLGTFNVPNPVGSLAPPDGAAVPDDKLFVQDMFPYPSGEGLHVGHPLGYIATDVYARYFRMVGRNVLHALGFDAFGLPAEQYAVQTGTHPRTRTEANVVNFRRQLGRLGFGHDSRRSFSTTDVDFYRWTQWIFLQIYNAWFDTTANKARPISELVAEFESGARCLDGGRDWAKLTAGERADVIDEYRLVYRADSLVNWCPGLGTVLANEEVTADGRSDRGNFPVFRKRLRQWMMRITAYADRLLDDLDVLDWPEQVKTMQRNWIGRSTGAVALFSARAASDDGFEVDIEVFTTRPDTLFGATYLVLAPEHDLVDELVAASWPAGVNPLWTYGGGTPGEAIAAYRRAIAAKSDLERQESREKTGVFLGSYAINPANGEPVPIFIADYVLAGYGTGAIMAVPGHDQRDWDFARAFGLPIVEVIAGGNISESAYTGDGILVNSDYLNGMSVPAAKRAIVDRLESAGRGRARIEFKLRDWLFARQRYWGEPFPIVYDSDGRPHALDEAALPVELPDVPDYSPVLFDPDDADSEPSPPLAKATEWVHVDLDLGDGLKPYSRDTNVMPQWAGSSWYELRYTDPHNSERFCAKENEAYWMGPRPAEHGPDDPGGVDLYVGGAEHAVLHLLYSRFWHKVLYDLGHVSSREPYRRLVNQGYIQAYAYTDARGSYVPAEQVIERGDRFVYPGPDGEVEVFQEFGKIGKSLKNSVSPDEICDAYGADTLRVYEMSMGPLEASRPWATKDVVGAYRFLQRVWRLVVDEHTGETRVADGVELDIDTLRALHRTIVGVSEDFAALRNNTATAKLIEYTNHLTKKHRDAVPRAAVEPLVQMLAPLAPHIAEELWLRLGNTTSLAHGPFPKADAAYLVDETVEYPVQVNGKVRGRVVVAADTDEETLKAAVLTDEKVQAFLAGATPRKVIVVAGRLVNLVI

mtLeuRS [10] = target: T3, mtLeuRS; assay: biochemical; conditions: IC50, 1 h preincubation, 1 h preincubation with enzyme and mttRNA^Leu
[11] = tested on: human mitochondrial LeuRS; conditions: read-out: reported IC50; cited from earlier work
mtLeuRS [12] = target: T3, mtLeuRS; assay type: binding
M. tuberculosis H37Rv = assay: MIC, microplate Alamar blue assay; assay type: cell-based; conditions: Mycobacterium tuberculosis
[13] = tested on: M. tuberculosis H37Rv_LuxABCDE; assay: Post-antibiotic effect, autobioluminescent strain; assay type: cell-based, Mycobacterium tuberculosis
E. coli ATCC25922 [14] = assay: Checkerboard MIC assay and FIC index; assay type: cell-based, Escherichia coli; conditions: for MIC: Escherichia coli
M. tuberculosis = conditions: cited from earlier work
[15] = 1xMIC exposure for 2.5 h, 10,000-fold dilution
[16] = 10xMIC exposure for 2.5 h, 10,000-fold dilution
[17] = 30xMIC exposure for 2.5 h, 10,000-fold dilution
[18] = 50xMIC exposure for 2.5 h, 10,000-fold dilution

T1 sequence (P07813 whole entry): as the sequence (P07813 whole entry D342E) above, with E342D counted along it

Question: With NCC1OB(O)c2c(OCCCO)cccc21 (centres unmarked) [AN3213] as the molecule, how does the reported residence time (ecLeuRS [1]; ecLeuRS and tRNA^Leu) read?
Answer: 23 h

Question: For NC[C@H]1OB(O)c2c(OCCCO)cccc21 [Epetraborole], which Kd (ecLeuRS [2]) is on record?
Answer: 1100 ± 71 nM

Question: What about the Kd/IC50 (ecLeuRS [2]; ecLeuRS) of the same molecule?
Answer: 367

Question: What about the kon (ecLeuRS [2]) of the same molecule?
Answer: 62000 ± 33000 M⁻¹ s⁻¹

Question: What about the residence time (ecLeuRS [1]; ecLeuRS with tRNA^Leu) of the same molecule?
Answer: 23 h

Question: What about the MIC (E. coli ATCC25922 [3]; Escherichia coli, ATCC25922) of the same molecule?
Answer: 1.56 µM (≈ 0.37 µg/mL)

Question: For NC[C@H]1OB(O)c2c(OCCO)ccc(Cl)c21 [Ganfeborole, (S)-3-(Aminomethyl)-4-chloro-7-(2-hydroxyethoxy)benzo[c][1,2]oxaborol-1(3H)-ol], which “MIC / antibacterial activity in efflux pump mutant strains” value (E. coli ΔtolC and ΔacrAB) is on record?
Answer: no antibacterial activity

Question: What about the “antibacterial activity, no activity up to” value (E. coli ΔtolC and ΔacrAB) of the same molecule?
Answer: > 1 mM

Question: And the IC50 (ecLeuRS [4])?
Answer: 2 ± 0.1 nM

Question: What about the Kd (ecLeuRS D342E [5]) of the same molecule?
Answer: 1700 ± 197 nM

Question: What about the Kd/IC50 (ecLeuRS D342E [5]) of the same molecule?
Answer: 85

Question: And the koff (ecLeuRS D342E [5]; read-out: SPR koff)?
Answer: 0.07 ± 0.0071 s⁻¹

Question: What about the kon (ecLeuRS D342E [5]; read-out: SPR kon) of the same molecule?
Answer: 42000 ± 1000 M⁻¹ s⁻¹

Question: What about the residence time (ecLeuRS D342E [5]; read-out: SPR tR (residence time)) of the same molecule?
Answer: 0.24 ± 0.02 min

Question: What about the “fold increase in IC50, D342E mutant versus ecLeuRS” value (ecLeuRS D342E [6]) of the same molecule?
Answer: 10 fold

Question: And the IC50 (ecLeuRS D342E [6]; IC50, 2 min preincubation)?
Answer: 278 ± 19 nM

Question: What about the IC50 (ecLeuRS D342E [6]; IC50, 20 min preincubation) of the same molecule?
Answer: 60 ± 4 nM

Question: What about the IC50 (ecLeuRS D342E [6]; IC50, 1 h preincubation) of the same molecule?
Answer: 20 ± 2 nM

Question: What about the time-kill result (E. coli ATCC25922 [7]) of the same molecule?
Answer: cidality

Question: What about the MIC [8] of the same molecule?
Answer: 1.56 µM (≈ 0.402 µg/mL)

Question: And the MIC ([8]; Escherichia coli, read-out: MIC, four mutant strains together)?
Answer: 1.56 to 6.25 µM (≈ 0.402 to 1.61 µg/mL)

Question: What about the IC50 (human cytoplasmic LeuRS) of the same molecule?
Answer: 132000 nM

Question: What about the Kd (ecLeuRS [2]) of the same molecule?
Answer: 17 ± 1 nM

Question: What about the “fold more potent binding than compound 1” value (ecLeuRS [2]; ecLeuRS, SPR with AMP) of the same molecule?
Answer: 30-40 fold

Question: What about the “SPR tR (residence time)” value (ecLeuRS [2]; ecLeuRS, in the presence of AMP) of the same molecule?
Answer: 104 ± 5 min

Question: What about the Kd/IC50 (ecLeuRS [2]; ecLeuRS) of the same molecule?
Answer: 8.5

Question: What about the koff (ecLeuRS [2]; read-out: SPR koff) of the same molecule?
Answer: 0.00016 ± 1e-05 s⁻¹

Question: What about the kon (ecLeuRS [2]) of the same molecule?
Answer: 9500 ± 500 M⁻¹ s⁻¹

Question: And the residence time (ecLeuRS [2]; read-out: SPR tR (residence time), ecLeuRS, in the presence of AMP)?
Answer: 100 min

Question: And the Kd (mtLeuRS [9])?
Answer: 10.4 nM

Question: What about the IC50 (mtLeuRS [10]) of the same molecule?
Answer: 1 ± 0.1 nM

Question: What about the IC50 [11] of the same molecule?
Answer: > 300000 nM

Question: And the “fold more potent binding than compound 1” value (mtLeuRS [12]; SPR with AMP)?
Answer: ~ 50 fold

Question: And the Kd/IC50 (mtLeuRS [12]; ratio of SPR Kd (AMP) and IC50 after 1 h preincubation)?
Answer: 7

Question: What about the MIC (E. coli ATCC25922 [3]; E. coli wild-type, Table 4 (CAMH medium)) of the same molecule?
Answer: >1000 µM

Question: What about the MIC (E. coli ATCC25922 [3]; Escherichia coli, ATCC25922) of the same molecule?
Answer: > 1000 µM

Question: And the “antibacterial activity towards E. coli, no activity up to” value (E. coli ATCC25922 [3]; wild-type E. coli)?
Answer: > 1 mM

Question: And the MIC (M. tuberculosis H37Rv)?
Answer: 0.058 µM (≈ 0.0149 µg/mL)

Question: And the “PAE 1xMIC” value [13, 15]?
Answer: 0 h

Question: And the “PAE 10xMIC” value [13, 16]?
Answer: 32 ± 2 h

Question: And the “PAE 30xMIC” value [13, 17]?
Answer: 39 ± 2 h

Question: And the “PAE 50xMIC” value [13, 18]?
Answer: 77 ± 4 h

Question: And the “PAE 50xMIC” value ([13]; 50xMIC exposure for 2.5 h, 10,000-fold dilution, listed as ganfeborole)?
Answer: 77 h

Question: What about the “fold decrease in the MIC of ganfeborole on addition of Nva” value (E. coli ATCC25922 [14]; E. coli, 12.5 μM Nva) of the same molecule?
Answer: > 1000 fold

Question: And the MIC (E. coli ATCC25922 [14]; ATCC25922, read-out: MIC of ganfeborole + 12.5 μM Nva, E. coli ATCC25922, M9 media, + 12.5 μM Nva)?
Answer: 0.4 µM

Question: What about the MIC (E. coli ATCC25922 [14]; ATCC25922, read-out: MIC of ganfeborole + 100 μM Nva + 100 μM Leu, E. coli ATCC25922, M9 media, + 100 μM Nva + 100 μM Leu) of the same molecule?
Answer: 1600 µM

Question: And the FICI (E. coli ATCC25922 [14]; checkerboard of Nva and ganfeborole, E. coli ATCC25922)?
Answer: < 0.5

Question: For NNC(=O)c1ccncc1 [Isoniazid], which MIC (M. tuberculosis H37Rv) is on record?
Answer: 0.23 µM (≈ 0.0315 µg/mL)

Question: And the “PAE at any concentration” value ([13]; 1x to 50xMIC)?
Answer: no detectable PAE

Question: What about the “PAE 1xMIC” value [13, 15] of the same molecule?
Answer: 0 h

Question: What about the “PAE 10xMIC” value [13, 16] of the same molecule?
Answer: 0 h

Question: And the “PAE 30xMIC” value [13, 17]?
Answer: 0 h

Question: And the “PAE 50xMIC” value [13, 18]?
Answer: 0 h

Question: Which results are given for CCC[C@H](N)C(=O)O [Nva, L-Norvaline]?
Answer: effect on bacterial growth, no effect up to (E. coli ATCC25922 [3]; Nva alone, E. coli): > 200 µM; MIC (E. coli ATCC25922 [14]; ATCC25922, read-out: MIC of Nva with 6.4 μM ganfeborole, E. coli ATCC25922, in the presence of 3.1 μM Leu): 25 µM; MIC (E. coli ATCC25922 [14]; ATCC25922, read-out: MIC of Nva with 6.4 μM ganfeborole, E. coli ATCC25922, with 200 μM Leu): 1600 µM

Question: Which PAE (M. tuberculosis) does the source give for CO[C@H]1/C=C/O[C@@]2(C)Oc3c(C)c(O)c4c(O)c(c(/C=N/N5CCN(C)CC5)c(O)c4c3C2=O)NC(=O)/C(C)=C\C=C\[C@H](C)[C@H](O)[C@@H](C)[C@@H](O)[C@@H](C)[C@H](OC(C)=O)[C@@H]1C [Rifampicin] here?
Answer: 68 to 77 h

Question: And the MIC (M. tuberculosis H37Rv)?
Answer: 0.04 µM (≈ 0.0329 µg/mL)

Question: What about the “PAE 1xMIC” value [13] of the same molecule?
Answer: 22 ± 1 h

Question: And the “PAE 10xMIC” value [13]?
Answer: 30 ± 2 h

Question: And the “PAE 30xMIC” value [13]?
Answer: 36 ± 3 h

Question: What about the “PAE 50xMIC” value [13] of the same molecule?
Answer: 72 h and 72 ± 4 h
